US5783703A, “Sulfur-containing compounds method for their use and prodction” (Lederle (Japan), Ltd., priority 1993, dated 1998)
Converted amounts (≈) assume the structure as drawn. Read-outs that look alike come from different tables or passages of the source.

Tests used:
M. luteus ATCC 9341 = assay: Antibacterial test, agar plate dilution method (MIC), standard strains; format: cell-based; settings: Micrococcus luteus, ATCC9341, MH agar, 37° C., 18 hours
Protocol: (§1) The antibacterial activities were tested by an agar plate dilution method in accordance with the standard method of The Japanese Chemotherapy Society [Chemotherapy, Vol. 29, 76-79 (1981)].
(§2) A Mueller-Hinton (MH) agar liquid medium of a test microorganism was cultured overnight at 37° C. and the resultant culture medium was diluted with a buffered saline gelatin (BSG) solution to contain approximately 10^6 cells of the test microorganisms per milliliter, and then the diluted solution was inoculated with a microplanter at the rate of approximately 5 microliters on a MH agar medium containing a test compound. This medium was then incubated at 37° C. for 18 hours. The minimum inhibitory concentration (MIC) is determined as a minimum concentration in which no test microorganism could grow. It is noted here that the test organisms used were all standard strains.

S. typhimurium 11D971 = assay: as above; format: cell-based; settings: Salmonella enterica, MH agar, 37° C., 18 hours
Protocol: as §1, §2

P. vulgaris OX-19 = assay: as above; format: cell-based; settings: Proteus vulgaris, OX19, MH agar, 37° C., 18 hours
Protocol: as §1, §2

E. coli K-12 C600 = assay: as above; format: cell-based; settings: Escherichia coli, K12C600, MH agar, 37° C., 18 hours
Protocol: as §1, §2

K. pneumoniae PCI-602 = assay: as above; format: cell-based; settings: Klebsiella pneumoniae, PCI602, MH agar, 37° C., 18 hours
Protocol: as §1, §2

S. aureus Terajima = assay: as above; format: cell-based; settings: Staphylococcus aureus, MH agar, 37° C., 18 hours
Protocol: as §1, §2

P. rettgeri IFO 3850 = assay: as above; format: cell-based; settings: Providencia rettgeri, IFO3850, MH agar, 37° C., 18 hours
Protocol: as §1, §2

E. aerogenes ATCC 13048 = assay: as above; format: cell-based; settings: Klebsiella aerogenes, ATCC13048, MH agar, 37° C., 18 hours
Protocol: as §1, §2

E. coli NIHJ JC-2 = assay: as above; format: cell-based; settings: Escherichia coli, NIHJJC2, MH agar, 37° C., 18 hours
Protocol: as §1, §2

M. morganii IFO 3848 = assay: as above; format: cell-based; settings: Morganella morganii, IFO3848, MH agar, 37° C., 18 hours
Protocol: as §1, §2

S. typhi 901 = assay: as above; format: cell-based; settings: Salmonella enterica, 18 h
Protocol: as §1, §2

S. pyogenes Cook = assay: as above; format: cell-based; settings: Streptococcus pyogenes, MH agar, 37° C., 18 hours
Protocol: as §1, §2

P. mirabilis IFO 3849 = assay: as above; format: cell-based; settings: Proteus mirabilis, IFO3849, MH agar, 37° C., 18 hours
Protocol: as §1, §2

S. aureus MS353 = assay: as above; format: cell-based; settings: Staphylococcus aureus, MH agar, 37° C., 18 hours
Protocol: as §1, §2

S. paratyphi 1015 = assay: as above; format: cell-based; settings: Salmonella enterica, 18 h
Protocol: as §1, §2

S. aureus FDA209P JC-1 = assay: as above; format: cell-based; settings: Staphylococcus aureus, MH agar, 37° C., 18 hours
Protocol: as §1, §2

S. enteritidis G14 = assay: as above; format: cell-based; settings: Salmonella enterica, MH agar, 37° C., 18 hours
Protocol: as §1, §2

B. subtilis ATCC 6633 = assay: as above; format: cell-based; settings: Bacillus subtilis, ATCC6633, MH agar, 37° C., 18 hours
Protocol: as §1, §2

E. cloacae 963 = assay: as above; format: cell-based; settings: Enterobacter cloacae, MH agar, 37° C., 18 hours
Protocol: as §1, §2

S. marcescens IAM 1184 = assay: as above; format: cell-based; settings: Serratia marcescens, IAM1184, MH agar, 37° C., 18 hours
Protocol: as §1, §2

S. schottmuelleri 8006 = assay: as above; format: cell-based; settings: MH agar, 37° C., 18 hours
Protocol: as §1, §2

P. vulgaris HX-19 = assay: as above; format: cell-based; settings: Proteus vulgaris, HX19, MH agar, 37° C., 18 hours
Protocol: as §1, §2

[1] = Oral absorption study in mice; format: in vivo, mice of ddY strain; settings: 100 mg/kg
Protocol: 5-week-old male mice of ddY strain were used after fasting overnight. The test compounds in 1% physiological saline solution at a dose of 100 mg/kg were administered orally to a group of 2 mice. Blood was taken from the vena jugularis at 15, 30, 60 and 120 minutes after dosing.

[2] = In situ absorption from rat intestinal loop; format: in vivo, rats of Wistar strain; settings: rat jejunal loop, 20 mg/kg
Protocol: 7-week-old male rats of Wistar strain were used after fasting overnight. After anesthetizing the animals with ether, the intestine was exteriorized and an acute loop of 30 cm length was prepared from the upper part of jejunum by ligature of both ends. 0.2% physiological saline solutions of the test compounds were injected at a dose of 20 mg/kg into the loop with a syringe, and the loop was returned. About 0.4 ml blood was taken from the vena jugularis at 10, 30, 60 and 120 minutes after dosing.

S. marcescens = assay: Antibacterial activities against clinically isolated microorganism; format: cell-based; settings: Serratia marcescens, 27 strains clinically isolated in Japan
Protocol: (§3) The following strains clinically isolated freshly in Japan were used in this test.
S. marcescens 27 strains
(§4) 2. The test was carried out by the agar plate dilution method in accordance with the standard method of The Japanese Chemotherapy Society. The minimum inhibitory concentration (MIC) was determined in substantially the same manner as the test procedures described in Test I.

E. faecalis = assay: as above; format: cell-based; settings: Enterococcus faecalis, read-out: MIC50 against clinically isolated microorganism
Protocol: as §3, §4

K. pneumoniae = assay: as above; format: cell-based; settings: Klebsiella pneumoniae, 23 strains clinically isolated in Japan
Protocol: as §3, §4

MRSA = assay: as above; format: cell-based; settings: Staphylococcus aureus, read-out: MIC50 against clinically isolated microorganism
Protocol: as §3, §4

S. epidermidis = assay: as above; format: cell-based; settings: Staphylococcus epidermidis, 23 strains clinically isolated in Japan
Protocol: as §3, §4

E. cloacae = assay: as above; format: cell-based; settings: Enterobacter cloacae, 14 strains clinically isolated in Japan
Protocol: as §3, §4

[3] = Storage stability of the crystal at room temperature; format: physicochemical; settings: dehumidified state, one month
Description: The 3-mercapto-1-(1,3-thiazolin-2-yl)azetidine hydrochloride (8) in the form of crystal obtained in the above Example 6 was left still in dehumidified state at a room temperature for one month.

[4] = mouse, plasma, for (32) and (33) shown as Compound (28)
[5] = plasma, for (32) and (33) shown as Compound (28)
[6] = 28 strains clinically isolated in Japan
[7] = only deesterified Compound (28) detected

Compound	MIC (M. luteus ATCC 9341)	MIC (S. typhimurium 11D971)	MIC (P. vulgaris OX-19)	MIC (E. coli K-12 C600)	MIC (K. pneumoniae PCI-602)	MIC (S. aureus Terajima)	MIC (P. rettgeri IFO 3850)	MIC (E. aerogenes ATCC 13048)	MIC (E. coli NIHJ JC-2)	MIC (M. morganii IFO 3848)	MIC (S. typhi 901)	MIC (S. pyogenes Cook)	MIC (P. mirabilis IFO 3849)	MIC (S. aureus MS353)	MIC (S. paratyphi 1015)	MIC50 (S. marcescens)	MIC50 (E. faecalis)	MIC50 (K. pneumoniae)	MIC50 (S. epidermidis)	MIC50 (E. cloacae)	further results
COCOC[C@@H]1CSC(N2CC(SC3=C(C(=O)O)N4C(=O)[C@H]([C@@H](C)O)[C@H]4[C@H]3C)C2)=N1 [Compound (31), (1R,5S,6S)-2-[1-((4R)-methoxymethyloxymethyl-1,3-thiazolin-2-yl)azetidin-3-yl]thio-6-[(R)-1-hydroxyethyl]-1-methyl-carbapen-2-em-3-carboxylic acid]	0.2 µg/mL (≈ 0.437 µM)	0.1 µg/mL (≈ 0.219 µM)	0.1 µg/mL (≈ 0.219 µM)	0.2 µg/mL (≈ 0.437 µM)	0.013 µg/mL (≈ 0.0284 µM)	≤ 0.006 µg/mL	6.25 µg/mL (≈ 13.7 µM)	0.39 µg/mL (≈ 0.852 µM)	0.05 µg/mL (≈ 0.109 µM)	0.2 µg/mL (≈ 0.437 µM)	0.05 µg/mL (≈ 0.109 µM)	≤ 0.006 µg/mL	0.78 µg/mL (≈ 1.7 µM)	0.025 µg/mL (≈ 0.0546 µM)	0.05 µg/mL (≈ 0.109 µM)						MIC (S. aureus FDA209P JC-1): 0.05 µg/mL (≈ 0.109 µM); MIC (S. enteritidis G14): 0.2 µg/mL (≈ 0.437 µM); MIC (B. subtilis ATCC 6633): 0.025 µg/mL (≈ 0.0546 µM); MIC (E. cloacae 963): 0.2 µg/mL (≈ 0.437 µM); MIC (S. marcescens IAM 1184): 0.39 µg/mL (≈ 0.852 µM); MIC (S. schottmuelleri 8006): 0.2 µg/mL (≈ 0.437 µM); MIC (P. vulgaris HX-19): 0.39 µg/mL (≈ 0.852 µM)
C[C@@H](O)[C@H]1C(=O)N2C(C(=O)O)=C(SC3CN(C4=NCCS4)C3)[C@H](C)[C@H]12 [Compound (28), (1R,5S,6S)-2-[1-(thiazolin-2-yl)azetidin-3-yl]thio-6-[(R)-1-hydroxyethyl]-1-methyl-carbapen-2-em-3-carboxylic acid]	0.2 µg/mL (≈ 0.522 µM)	0.025 µg/mL (≈ 0.0652 µM)	0.1 µg/mL (≈ 0.261 µM)	0.1 µg/mL (≈ 0.261 µM)	0.013 µg/mL (≈ 0.0339 µM)	≤ 0.006 µg/mL	0.39 µg/mL (≈ 1.02 µM)	0.1 µg/mL (≈ 0.261 µM)	0.013 µg/mL (≈ 0.0339 µM)	0.39 µg/mL (≈ 1.02 µM)	≤ 0.006 µg/mL	≤ 0.006 µg/mL	0.39 µg/mL (≈ 1.02 µM)	≤ 0.006 µg/mL	0.05 µg/mL (≈ 0.13 µM)	0.2 µg/mL (≈ 0.522 µM)	0.39 µg/mL (≈ 1.02 µM)	0.025 µg/mL (≈ 0.0652 µM)	0.39 µg/mL (≈ 1.02 µM)	0.1 µg/mL (≈ 0.261 µM)	AUC(0-t) at 2 h [1, 4]: 5000 ng·h/mL; Cmax [1, 4]: 3500 ng/mL; AUC(0-t) at 2 h [2, 5]: 1000 ng·h/mL; Cmax [2, 5]: 800 ng/mL; MIC50 (MRSA; [6]): 0.78 µg/mL (≈ 2.03 µM); MIC (S. aureus FDA209P JC-1): 0.013 µg/mL (≈ 0.0339 µM); MIC (S. enteritidis G14): 0.39 µg/mL (≈ 1.02 µM); MIC (B. subtilis ATCC 6633): 0.025 µg/mL (≈ 0.0652 µM); MIC (E. cloacae 963): 0.05 µg/mL (≈ 0.13 µM); MIC (S. marcescens IAM 1184): 0.05 µg/mL (≈ 0.13 µM); MIC (S. schottmuelleri 8006): 0.025 µg/mL (≈ 0.0652 µM); MIC (P. vulgaris HX-19): 0.1 µg/mL (≈ 0.261 µM)
CC(OC(=O)OC1CCCCC1)OC(=O)C1=C(SC2CN(C3=NCCS3)C2)[C@H](C)[C@@H]2[C@@H]([C@@H](C)O)C(=O)N12 (stereo partly drawn) [Compound (33), 1-[(cyclohexyloxy)carbonyloxy] ethyl (1R,5S,6S)-2-[1-(1,3-thiazolin-2-yl)azetidin-3-yl]thio-6-[(R)-1-hydroxyethyl]-1-methylcarbapen-2-em-3-carboxylate]																					plasma level of the administered ester itself [1, 7]: undetectable; plasma level of the administered ester itself [2, 7]: undetectable
C[C@@H](O)[C@H]1C(=O)N2C(C(=O)O)=C(SCCN=CN)C[C@H]12 [Imipenem, imipenem]																1.56 µg/mL (≈ 5.21 µM)	0.78 µg/mL (≈ 2.61 µM)	0.2 µg/mL (≈ 0.668 µM)	0.2 µg/mL (≈ 0.668 µM)	0.2 µg/mL (≈ 0.668 µM)	MIC50 (MRSA; [6]): 3.13 µg/mL (≈ 10.5 µM)
CC(C)(O/N=C(\C(=O)N[C@@H]1C(=O)N2C(C(=O)[O-])=C(C[n+]3ccccc3)CS[C@H]12)c1csc(N)n1)C(=O)O [CAZ, ceftazidime]																0.39 µg/mL (≈ 0.714 µM)	25 µg/mL (≈ 45.7 µM)	0.2 µg/mL (≈ 0.366 µM)	12.5 µg/mL (≈ 22.9 µM)	1.56 µg/mL (≈ 2.85 µM)	MIC50 (MRSA): 100 µg/mL (≈ 183 µM)
Cl.SC1CN(C2=NCCS2)C1 [compound (8), 3-mercapto-1-(1,3-thiazolin-2-yl)azetidine hydrochloride]																					purity after storage (storage stability) [3]: did not change at all
